Measurements taken from ChEMBL document CHEMBL6083243, “Design, synthesis and biological evaluation of sulfonylurea derivatives as NLRP3 inflammasome inhibitors” (Bioorg Med Chem Lett, 2024).
Calls of active or inactive are those of the source. No cut-off for these calls is given here.

Experiments:
[1] = molecular target: NACHT, LRR and PYD domains-containing protein 3 (Mus musculus, UniProt Q8R4B8); experiment: Inhibition of NLRP3 inflammasome activation in LPS/Nigericin stimulated mouse BMDM cells assessed as reduction in cleaved-IL-1 beta level by ELISA method; format: cell-based
NACHT, LRR and PYD domains-containing protein 3, sequence (Q8R4B8 whole entry, the tested form may be a part): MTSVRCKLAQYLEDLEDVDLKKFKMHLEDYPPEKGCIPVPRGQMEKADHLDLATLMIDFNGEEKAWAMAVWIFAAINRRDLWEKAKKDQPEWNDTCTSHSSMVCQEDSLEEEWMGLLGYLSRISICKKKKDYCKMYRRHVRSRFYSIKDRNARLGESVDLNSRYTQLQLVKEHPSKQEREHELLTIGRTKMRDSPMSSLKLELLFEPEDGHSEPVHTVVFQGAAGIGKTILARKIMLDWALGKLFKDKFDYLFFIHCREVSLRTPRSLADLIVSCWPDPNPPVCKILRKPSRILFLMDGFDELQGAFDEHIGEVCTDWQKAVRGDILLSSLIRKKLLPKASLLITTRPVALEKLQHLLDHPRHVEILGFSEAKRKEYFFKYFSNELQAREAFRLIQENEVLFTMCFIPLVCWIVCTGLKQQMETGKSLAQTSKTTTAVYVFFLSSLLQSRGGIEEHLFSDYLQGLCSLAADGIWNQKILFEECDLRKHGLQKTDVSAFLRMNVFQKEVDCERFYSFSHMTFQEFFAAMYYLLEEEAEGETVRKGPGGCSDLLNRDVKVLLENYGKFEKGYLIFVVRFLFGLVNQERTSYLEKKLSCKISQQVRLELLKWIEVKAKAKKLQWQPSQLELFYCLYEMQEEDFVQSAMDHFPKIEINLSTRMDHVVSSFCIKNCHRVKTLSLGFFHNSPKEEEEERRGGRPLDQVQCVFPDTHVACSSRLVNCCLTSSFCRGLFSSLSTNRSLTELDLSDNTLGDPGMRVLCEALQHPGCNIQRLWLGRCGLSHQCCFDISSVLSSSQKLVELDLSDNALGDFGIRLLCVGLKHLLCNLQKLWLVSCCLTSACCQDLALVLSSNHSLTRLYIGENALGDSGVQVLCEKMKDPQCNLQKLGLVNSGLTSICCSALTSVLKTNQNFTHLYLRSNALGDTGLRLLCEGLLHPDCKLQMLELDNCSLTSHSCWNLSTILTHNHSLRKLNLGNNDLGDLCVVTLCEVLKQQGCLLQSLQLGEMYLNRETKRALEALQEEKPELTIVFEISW

[2] = test system: BMDM; experiment: Effect on NLRP3 protein expression in mouse BMDM cell lysate at 0.02 to 2 uM by Western blot analysis; format: functional, subcellular; conditions: dose 0.02-2 µM
[3] = molecular target: NACHT, LRR and PYD domains-containing protein 3 (Mus musculus) (UniProt Q8R4B8); experiment: Inhibition of NLRP3 inflammasome activation in LPS/Nigericin stimulated mouse BMDM cells assessed as reduction in IL-1 beta level by Western blot analysis; format: cell-based; conditions: dose 0.2-2 µM
NACHT, LRR and PYD domains-containing protein 3 (Mus musculus), sequence (Q8R4B8 whole entry, the tested form may be a part): as above

[4] = molecular target: NACHT, LRR and PYD domains-containing protein 3 (Mus musculus) (UniProt Q8R4B8); experiment: Inhibition of NLRP3 inflammasome activation in LPS/Nigericin stimulated mouse BMDM cells assessed as reduction in active caspase-1 level by Western blot analysis; format: cell-based; conditions: dose 0.2-2 µM
[5] = molecular target: Carbonic anhydrase 2 (Homo sapiens, UniProt P00918); experiment: Inhibition of Carbonic anhydrase II (unknown origin)

IC50 [1] [nM]	inhibition [3]	inhibition [4]	IC50 [5] [nM]	SMILES	Activity [2]
171	–	–	–	CC(C)c1cc(Cl)cc(C(C)C)c1NC(=O)NS(=O)(=O)c1cc(C(C)(C)O)co1	–
805	Dose-dependent-effect	Dose-dependent-effect	–	O=C(Nc1c(Br)cc(Cl)cc1Oc1ccccc1)NS(=O)(=O)c1cc(Br)cc2c1OCC2	inactive
126	–	–	11000	CC(C)(O)c1coc(S(=O)(=O)NC(=O)Nc2c3c(cc4c2CCC4)CCC3)c1	–
